Where two headings read alike, the source gives them in different places.
Key:
[1] = system: L6 rat myoblast cells; test: Oxygen consumption rate; details: for uncoupling activity (in words): OCR in L6 rat myoblast cells
[2] = system: STAM mouse model of NASH; test: STAM; type: in vivo, mice; details: SHS4121705 25 mg kg−1 d−1 in food
[3] = Core body temperature after acute oral dose; type: in vivo; details: acute oral dose 5, 20, 50 mg/kg, up to 4 h, C57BL/6 male mice; listed as SHS4121705
[4] = use in humans; cited from earlier work
[5] = system: STAM mouse model of NASH; details: STZ-induced mouse model of NASH; cited from earlier work

## Oc1nc2nonc2nc1Nc1ccccc1F [12a, 6-((2-Fluorophenyl)amino)-[1,2,5]oxadiazolo[3,4-b]pyrazin-5-ol]
[1]; OCR EC50 of 12a compared with parent diamine uncoupler
  loss of potency: 40 ×

## CN(c1ccccc1F)c1nc2nonc2nc1O [12ae, 6-((2-Fluorophenyl)(methyl)amino)-[1,2,5]oxadiazolo[3,4-b]pyrazin-5-ol]
[1]
  uncoupling activity (in words): completely devoid of uncoupling activity

## Oc1nc2nonc2nc1Nc1ccc(OC(F)(F)F)cc1 [12i, 6-((4-(Trifluoromethoxy)phenyl)amino)-[1,2,5]oxadiazolo[3,4-b]pyrazin-5-ol]
[2]; 21 days
  ballooning score: 0.25 ± 0.16
  inflammation score: 2.38 ± 0.18
  steatosis score: 0 ± 0
[2]; liver, day 21
  NAS score (NAFLD activity score): 2.63 ± 0.18
[3]
  effect on core body temperature: no effect

## Oc1nc2nonc2nc1Nc1ccc(C(F)(F)F)c(F)c1 [12v, 6-((3-Fluoro-4-(trifluoromethyl)phenyl)amino)-[1,2,5]oxadiazolo[3,4-b]pyrazin-5-ol]
[1]; OCR EC50 relative to 12i
  fold less potent than 12i: > 2 fold

## Oc1nccnc1Nc1ccccc1F [16a, 3-((2-Fluorophenyl)amino)pyrazin-2-ol]
[1]
  uncoupling activity (in words): inactive

## CCCCCCCCCCc1ccc(Nc2nccnc2O)cc1 [16b, 3-((4-Decylphenyl)amino)pyrazin-2-ol]
[1]
  uncoupling activity (in words): inactive

## COc1cccc(-c2ccc(Nc3nccnc3O)cc2)c1 [16g, 3-((3′-Methoxy-[1,1′-biphenyl]-4-yl)amino)pyrazin-2-ol]
[1]
  uncoupling activity (in words): inactive

## Oc1nccnc1Nc1ccc(-c2ccc(F)cc2)cc1 [16h, 3-((4′-Fluoro-[1,1′-biphenyl]-4-yl)amino)pyrazin-2-ol]
[1]
  uncoupling activity (in words): inactive

## O=[N+]([O-])c1ccc(O)c([N+](=O)[O-])c1 [DNP, 2,4-dinitrophenol]
[4]
  increase in metabolism: > 50%

## Fc1cccc(Nc2nc3nonc3nc2Nc2ccccc2F)c1 [compound 9]
[5]
  fibrosis score: reduced
  inflammation score: reduced
  liver triglyceride levels: lowered

## COc1nc2nonc2nc1Nc1ccc(OC(F)(F)F)cc1 [compound 13, 6-Methoxy-N-(4-(trifluoromethoxy)phenyl)-[1,2,5]oxadiazolo[3,4-b]pyrazin-5-amine]
[1]
  uncoupling activity (in words): significantly abrogated

— article PMC11042500 (Journal of medicinal chemistry, 2020)
